Source: ChEMBL document CHEMBL3751729, “Benzamide derivatives and their constrained analogs as histamine H3 receptor antagonists” (Eur J Med Chem, 2016)

Key:
[1] = target: T1, Histamine H3 receptor (Homo sapiens, UniProt Q9Y5N1); assay: Displacement of [3H]R-alpha-methyl histamine from recombinant human H3 receptor
[2] = Cmax in fasted Wistar rat at 5 mg/kg, po by LC-MS/MS analysis; assay type: ADME, organism-based; design: dose 5 mg/kg, route oral; conditions: in vivo
[3] = target: T1, Histamine H3 receptor; assay: Binding affinity to recombinant human H3 receptor
[4] = target: T1, Histamine H3 receptor; assay: Antagonist activity at recombinant human H3 receptor expressed on CHO-K1 cells assessed as cAMP level by luciferase gene reporter assay; assay type: functional, cell-based
[5] = target: T2, hERG (KCNH2) (Homo sapiens, UniProt Q12809); assay: Inhibition of human ERG at 10 uM by scintillation counting method
T2 sequence (Q12809 whole entry): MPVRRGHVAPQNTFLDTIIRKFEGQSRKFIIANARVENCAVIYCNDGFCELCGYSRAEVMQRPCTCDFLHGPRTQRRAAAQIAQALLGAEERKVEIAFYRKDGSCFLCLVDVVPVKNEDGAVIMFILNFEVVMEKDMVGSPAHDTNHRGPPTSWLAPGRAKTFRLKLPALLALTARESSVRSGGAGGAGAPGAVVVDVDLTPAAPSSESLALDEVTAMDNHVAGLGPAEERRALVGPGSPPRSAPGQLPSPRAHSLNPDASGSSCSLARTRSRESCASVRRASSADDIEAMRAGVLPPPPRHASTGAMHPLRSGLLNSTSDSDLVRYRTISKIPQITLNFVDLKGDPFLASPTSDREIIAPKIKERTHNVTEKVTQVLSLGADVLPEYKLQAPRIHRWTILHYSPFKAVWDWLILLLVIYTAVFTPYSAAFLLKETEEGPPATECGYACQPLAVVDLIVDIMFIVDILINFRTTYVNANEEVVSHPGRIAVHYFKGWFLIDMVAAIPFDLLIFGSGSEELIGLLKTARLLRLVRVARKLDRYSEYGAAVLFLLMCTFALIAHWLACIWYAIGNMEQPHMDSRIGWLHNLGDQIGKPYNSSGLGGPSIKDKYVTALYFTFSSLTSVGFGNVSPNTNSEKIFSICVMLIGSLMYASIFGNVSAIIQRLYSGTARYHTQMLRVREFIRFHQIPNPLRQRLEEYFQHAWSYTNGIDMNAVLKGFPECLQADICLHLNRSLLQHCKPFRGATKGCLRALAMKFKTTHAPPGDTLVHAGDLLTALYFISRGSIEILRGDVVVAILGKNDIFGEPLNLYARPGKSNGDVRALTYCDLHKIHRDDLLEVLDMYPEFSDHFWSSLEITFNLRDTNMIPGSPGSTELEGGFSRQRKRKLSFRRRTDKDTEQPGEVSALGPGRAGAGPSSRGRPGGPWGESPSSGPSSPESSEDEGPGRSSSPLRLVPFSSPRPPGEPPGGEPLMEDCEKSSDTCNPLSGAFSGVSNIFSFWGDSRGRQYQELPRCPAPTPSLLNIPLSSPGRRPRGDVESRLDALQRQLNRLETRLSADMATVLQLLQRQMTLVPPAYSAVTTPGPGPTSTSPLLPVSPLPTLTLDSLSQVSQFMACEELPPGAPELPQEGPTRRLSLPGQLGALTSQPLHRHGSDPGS

[6] = Metabolic stability in human liver microsomes assessed as compound metabolized after 30 mins by LC-MS/MS analysis; assay type: ADME; conditions: read-out: Drug metabolism
[7] = Metabolic stability in rat liver microsomes assessed as compound metabolized after 30 mins by LC-MS/MS analysis; assay type: ADME; conditions: read-out: Drug metabolism
[8] = test system: Rattus norvegicus; assay: AUCt in fasted Wistar rat at 5 mg/kg, po by LC-MS/MS analysis; assay type: ADME, organism-based; conditions: in vivo
[9] = test system: Rattus norvegicus; assay: Oral bioavailability in fasted Wistar rat at 5 mg/kg by LC-MS/MS analysis; assay type: ADME, organism-based; conditions: in vivo
[10] = test system: Rattus norvegicus; assay: Half life in fasted Wistar rat at 5 mg/kg, iv by LC-MS/MS analysis; assay type: ADME, organism-based; conditions: in vivo
[11] = target: T2, hERG (KCNH2); assay: Inhibition of human ERG at 1 uM by scintillation counting method
[12] = target: Cytochrome P450 3A4 (Homo sapiens, UniProt P08684); assay: Inhibition of human CYP3A4 after 2 mins by LC-MS/MS analysis; assay type: ADME
Sequence of Cytochrome P450 3A4 (P08684 whole entry): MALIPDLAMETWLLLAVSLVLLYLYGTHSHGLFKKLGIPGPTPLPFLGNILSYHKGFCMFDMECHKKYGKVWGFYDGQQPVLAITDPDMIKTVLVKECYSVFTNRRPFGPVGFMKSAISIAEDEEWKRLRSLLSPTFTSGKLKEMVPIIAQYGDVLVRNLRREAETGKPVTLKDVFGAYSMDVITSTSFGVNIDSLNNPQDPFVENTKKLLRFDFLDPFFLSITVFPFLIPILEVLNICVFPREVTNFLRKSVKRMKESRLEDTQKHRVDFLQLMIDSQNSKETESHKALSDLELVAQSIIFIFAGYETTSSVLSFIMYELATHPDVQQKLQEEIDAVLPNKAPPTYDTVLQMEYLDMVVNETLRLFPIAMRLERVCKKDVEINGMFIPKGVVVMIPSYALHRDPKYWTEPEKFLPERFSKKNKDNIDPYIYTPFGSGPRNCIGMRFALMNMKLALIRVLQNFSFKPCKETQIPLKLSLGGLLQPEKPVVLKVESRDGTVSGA

[13] = target: Cytochrome P450 2D6 (Homo sapiens, UniProt P10635); assay: Inhibition of human CYP2D6 after 12 mins by LC-MS/MS analysis; assay type: ADME
Sequence of Cytochrome P450 2D6 (P10635 whole entry): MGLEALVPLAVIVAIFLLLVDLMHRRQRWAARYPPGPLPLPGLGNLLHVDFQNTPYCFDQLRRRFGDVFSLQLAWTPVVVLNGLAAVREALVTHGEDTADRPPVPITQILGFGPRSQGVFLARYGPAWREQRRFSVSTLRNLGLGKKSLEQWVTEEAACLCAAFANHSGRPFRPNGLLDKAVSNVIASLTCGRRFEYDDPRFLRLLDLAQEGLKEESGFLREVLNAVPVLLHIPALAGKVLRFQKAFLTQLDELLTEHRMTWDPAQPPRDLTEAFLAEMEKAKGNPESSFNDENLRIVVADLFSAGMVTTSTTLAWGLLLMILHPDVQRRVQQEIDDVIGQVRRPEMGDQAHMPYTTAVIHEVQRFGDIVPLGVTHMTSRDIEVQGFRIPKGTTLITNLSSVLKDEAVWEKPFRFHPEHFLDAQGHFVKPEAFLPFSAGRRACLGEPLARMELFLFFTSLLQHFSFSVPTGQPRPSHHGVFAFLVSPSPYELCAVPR

[14] = Cmax in fasted Wistar rat at 3 mg/kg, po by LC-MS/MS analysis; assay type: ADME, organism-based; design: dose 3 mg/kg, route oral; conditions: in vivo
[15] = test system: Rattus norvegicus; assay: AUCt in fasted Wistar rat at 3 mg/kg, po by LC-MS/MS analysis; assay type: ADME, organism-based; conditions: in vivo
[16] = test system: Rattus norvegicus; assay: Oral bioavailability in fasted Wistar rat at 3 mg/kg by LC-MS/MS analysis; assay type: ADME, organism-based; conditions: in vivo
[17] = test system: Rattus norvegicus; assay: Apparent volume of distribution in fasted Wistar rat at 3 mg/kg, iv by LC-MS/MS analysis; assay type: ADME, organism-based; conditions: in vivo
[18] = Drug uptake in Wistar rat brain at 3 mg/kg, po after 1 hr by LC-MS/MS analysis; assay type: ADME, organism-based; conditions: read-out: Drug uptake
[19] = Drug uptake in Wistar rat brain at 10 mg/kg, po after 1 hr by LC-MS/MS analysis; assay type: ADME, organism-based; conditions: read-out: Drug uptake
[20] = Drug uptake in Wistar rat brain at 30 mg/kg, po after 1 hr by LC-MS/MS analysis; assay type: ADME, organism-based; conditions: read-out: Drug uptake
[21] = Plasma concentration in Wistar rat at 3 mg/kg, po after 1 hr by LC-MS/MS analysis; assay type: ADME, organism-based
[22] = Plasma concentration in Wistar rat at 10 mg/kg, po after 1 hr by LC-MS/MS analysis; assay type: ADME, organism-based
[23] = Plasma concentration in Wistar rat at 30 mg/kg, po after 1 hr by LC-MS/MS analysis; assay type: ADME, organism-based
[24] = Ratio of drug level in brain to blood in Wistar rat at 10 mg/kg, po by LC-MS/MS analysis
[25] = test system: Rattus norvegicus; assay: In vivo receptor occupancy at histamine H3 receptor in po dosed Wistar rat by LC-MS/MS analysis; assay type: functional

T1 sequence (Q9Y5N1 whole entry): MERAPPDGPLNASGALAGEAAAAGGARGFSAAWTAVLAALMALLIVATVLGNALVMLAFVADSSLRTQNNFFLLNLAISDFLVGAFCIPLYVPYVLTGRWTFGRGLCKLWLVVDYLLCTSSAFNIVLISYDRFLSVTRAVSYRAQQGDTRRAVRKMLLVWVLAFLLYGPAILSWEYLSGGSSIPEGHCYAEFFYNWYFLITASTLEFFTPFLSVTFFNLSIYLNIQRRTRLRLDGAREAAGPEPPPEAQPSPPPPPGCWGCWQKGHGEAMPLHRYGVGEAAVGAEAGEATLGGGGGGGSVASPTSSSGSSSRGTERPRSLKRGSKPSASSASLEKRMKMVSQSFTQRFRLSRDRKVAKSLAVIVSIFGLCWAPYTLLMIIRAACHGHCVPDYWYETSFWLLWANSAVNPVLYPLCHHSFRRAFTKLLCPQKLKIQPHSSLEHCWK

Work on `CC(C)N1CCC(Oc2ccc3c(c2)CCN(C2CCN(C4CCC4)CC2)C3=O)CC1` yielded a Ki [1] of 1.8 nM.
`CC(C)N1CCC(Oc2ccc(C(=O)NC3CCN(C4CCC4)C3)cc2)CC1` (racemic) gave a Ki [1] of 2.5 nM.
For `CC(C)N1CCC(Oc2ccc3c(c2)CCN(C2CCN(C(C)C)C2)C3=O)CC1` (racemic), the Ki [1] was 2.1 nM.
`CC(C)CN1CCC(NC(=O)c2ccc(OC3CCN(C(C)C)CC3)cc2)C1` (stereo not drawn) gave a Cmax [2] of 18 ng/mL, a Ki [3] of 1.2 nM and an IC50 [4] of 459 nM. The inhibition at 10 µM [5] was 35%, the metabolised at 0.5 h [6] was 18% and the metabolised at 0.5 h [7] was 8%. The AUCt [8] was 281 ng·h/mL, the F [9] was 81% and the t1/2 [10] was 17.51 h.
In the case of `CC(C)N1CCC(Oc2ccc3c(c2)CCN(C2CCN(C4CCC4)C2)C3=O)CC1` (racemic), the Ki [1] is reported as 1.2 nM.
Compound `CC(C)N1CCC(Oc2ccc(C(=O)NC3CCN(C4CCC4)C3)c(F)c2)CC1` (racemic) has a Ki [1] of 5.7 nM.
For `CC(C)N1CCC(Oc2ccc(C(=O)NC3CCN(C4CCC4)CC3)c(F)c2)CC1`, the Ki [1] was 10.5 nM.
Work on `CC(C)N1CCC(NC(=O)c2ccc(OC3CCN(C4CCCC4)CC3)cc2)C1` (stereo not drawn) yielded a Ki [3] of 1 nM and an IC50 [4] of 274 nM.
`CC(C)N1CCC(Oc2ccc(C(=O)NC3CCN(C4CCC4)C3)cc2F)CC1` (racemic) gave a Ki [1] of 7.3 nM.
Compound `CC(C)N1CCC(NC(=O)c2ccc(OC3CCN(C4CCC4)CC3)cc2)C1` (racemic) has a Ki [1] of 26.9 nM.
For `Cc1cc(C(=O)NC2CCN(C(C)C)C2)ccc1OC1CCN(C(C)C)CC1` (racemic), the Ki [1] was 1360 nM.
`CC(C)CN1CCC(NC(=O)c2ccc(OC3CCN(C(C)C)CC3)cc2)C1` (racemic) showed a Ki [1] of 1 nM.
Work on `CC(C)N1CCC(NC(=O)c2ccc(OC3CCN(C(C)C)CC3)cc2)CC1` yielded a Ki [1] of 8.3 nM.
Work on `Cc1cc(OC2CCN(C(C)C)CC2)ccc1C(=O)NC1CCN(C2CCC2)C1` (racemic) yielded a Ki [1] of 9.2 nM.
`CC(C)N1CCC(NC(=O)c2ccc(OC3CCN(C(C)C)CC3)cc2F)CC1` gave a Ki [1] of 11.4 nM.
`CC(C)N1CCC(Oc2ccc3c(c2)CCN(C2CCN(C(C)C)C2)C3=O)CC1` (stereo not drawn) gave a Ki [3] of 0.1 nM and an IC50 [4] of 14.3 nM.
Work on `CC(C)N1CCC(Oc2ccc(C(=O)NC3CCN(C4CCC4)C3)c(Cl)c2)CC1` (racemic) yielded a Ki [1] of 18.4 nM.
`CC(C)N1CCC(NC(=O)c2ccc(OC3CCN(C4CCCC4)CC3)cc2)C1` (racemic) showed a Ki [1] of 8.6 nM.
`CC(C)N1CCC(NC(=O)c2ccc(OC3CCN(C4CCC4)CC3)cc2Cl)CC1` showed a Ki [1] of 7 nM.
Compound `CC(C)N1CCC(NC(=O)c2ccc(OC3CCN(C4CCC4)CC3)cc2)CC1` has a Ki [1] of 1.6 nM.
Work on `Cc1cc(C(=O)NC2CCN(C3CCC3)C2)ccc1OC1CCN(C(C)C)CC1` (racemic) yielded a Ki [1] of 384 nM.
`O=C(NC1CCN(C2CCC2)CC1)c1ccc(OC2CCN(C3CCC3)CC2)cc1Cl` showed a Ki [1] of 6.7 nM.
Compound `O=C1CCCN1c1ccc(Oc2ccc3c(c2)CCN(C2CCC2)CC3)nc1` [GSK239512] has a Ki [3] of 10 nM.
Compound `CC(C)N1CCC(Oc2ccc(C(=O)NC3CCN(C(C)C)C3)cc2)CC1` (racemic) has a Ki [1] of 5.7 nM.
Work on `CC(C)N1CCC(NC(=O)c2ccc(OC3CCOCC3)cc2)C1` (racemic) yielded a Ki [1] of 103 nM.
`CC(C)N1CCC(Oc2ccc(C(=O)NC3CCN(C(C)C)C3)cc2)CC1` (stereo not drawn) showed a Cmax [2] of 122 ng/mL, a Ki [3] of 0.9 nM and an IC50 [4] of 324 nM. The inhibition at 1 µM [11] was 21%, the IC50 [12] was over 45000 nM and the IC50 [13] was over 45000 nM. The metabolised at 0.5 h [6] was 12%, the metabolised at 0.5 h [7] was 4% and the AUCt [8] was 444 ng·h/mL. The F [9] was 75% and the t1/2 [10] was 11.67 h.
In the case of `CC(C)N1CCC(NC(=O)c2ccc(OC3CCN(C4CCC4)CC3)cc2)C1` (stereo not drawn), the IC50 [12] is reported as over 30000 nM and the IC50 [13] is reported as over 30000 nM.
Work on `O=C1c2ccc(OC3CCN(C4CCC4)CC3)cc2CCN1C1CCN(C2CCC2)CC1` yielded a Ki [1] of 0.8 nM, a Cmax [14] of 80 ng/mL and a Ki [3] of 0.03 nM. The IC50 [4] was 4.8 nM, the inhibition at 1 µM [11] was 23% and the inhibition at 10 µM [5] was 26%. For the same compound, the metabolised at 0.5 h [6] was 10%, the metabolised at 0.5 h [7] was 6% and the AUCt [15] was 1429 ng·h/mL. For the same compound, the F [16] was 27%, the Vz [17] was 13 L/kg and the concentration at 1 h [18] was 28.5 ng/g. It also gave a concentration at 1 h [19] of 175 ng/g, a concentration at 1 h [20] of 765 ng/g and a concentration at 1 h [21] of 3.7 ng/mL. For the same compound, the concentration at 1 h [22] was 15.7 ng/mL, the concentration at 1 h [23] was 76.3 ng/mL and the Kp [24] was 0.54. For the same compound, the Activity [25] was “Dose-dependent effect” and the ED50 [25] was 15.5 mg/kg.
